ChEMBL document CHEMBL3399980, “Synthesis and biological evaluation of novel selective androgen receptor modulators (SARMs). Part I” (Bioorg Med Chem, 2015)

Experiments:
Androgen receptor [1] = biological target: T1, Androgen receptor (Homo sapiens, UniProt P10275); test: Displacement of [3H]mibolerone from androgen receptor (unknown origin) after 3 hrs
T1 sequence (P10275 whole entry): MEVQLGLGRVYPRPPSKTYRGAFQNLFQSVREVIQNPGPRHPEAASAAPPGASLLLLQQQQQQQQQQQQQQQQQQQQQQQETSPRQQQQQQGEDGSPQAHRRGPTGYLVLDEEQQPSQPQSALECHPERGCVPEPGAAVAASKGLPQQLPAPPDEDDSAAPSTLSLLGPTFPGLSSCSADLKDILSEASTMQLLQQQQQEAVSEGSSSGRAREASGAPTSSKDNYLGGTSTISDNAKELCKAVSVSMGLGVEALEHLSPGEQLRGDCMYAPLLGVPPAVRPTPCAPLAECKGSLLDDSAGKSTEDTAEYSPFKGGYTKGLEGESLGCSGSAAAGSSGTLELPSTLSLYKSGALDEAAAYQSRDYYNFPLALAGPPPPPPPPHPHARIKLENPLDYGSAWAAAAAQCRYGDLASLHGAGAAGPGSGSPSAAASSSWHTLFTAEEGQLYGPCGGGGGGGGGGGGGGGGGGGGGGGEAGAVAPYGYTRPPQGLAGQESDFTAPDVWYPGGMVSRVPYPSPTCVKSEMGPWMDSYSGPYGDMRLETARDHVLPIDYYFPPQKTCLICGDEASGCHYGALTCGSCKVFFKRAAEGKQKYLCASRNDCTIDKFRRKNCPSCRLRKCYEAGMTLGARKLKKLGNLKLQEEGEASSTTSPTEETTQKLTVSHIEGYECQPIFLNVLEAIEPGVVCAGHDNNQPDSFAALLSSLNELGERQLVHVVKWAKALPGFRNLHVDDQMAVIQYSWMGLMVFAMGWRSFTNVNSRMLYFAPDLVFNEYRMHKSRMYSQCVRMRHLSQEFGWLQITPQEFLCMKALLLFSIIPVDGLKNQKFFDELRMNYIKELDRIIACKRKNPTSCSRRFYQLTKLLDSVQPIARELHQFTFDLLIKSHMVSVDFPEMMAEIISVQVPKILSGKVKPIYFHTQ

Androgen receptor [2] = biological target: T1, Androgen receptor; test: Modulation of androgen receptor (unknown origin) expressed in Cos7 cells assessed as luciferase activity after 24 hrs; format: cell-based, COS-7
Rattus norvegicus [3] = test: Induction of sexual behavior in castrated male CD(SD)IGS rat assessed as pseudopregnancy rate in female rat at 1.5 mg/kg, po bid measured on day 21 after first treatment (reference value: 0%); format: functional
Rattus norvegicus [4] = test: Induction of sexual behavior in castrated male CD(SD)IGS rat assessed as pseudopregnancy rate in female rat at 0.5 mg/kg, po bid measured on day 21 after first treatment (reference value: 0%); format: functional
Rattus norvegicus [5] = test: Toxicity in male CD(SD)IGS rat assessed as effect on seminal vesicle weight at 1.5 mg/kg, po bid for 4 days by Hershberger assay; format: organism-based; set-up: dose 1.5 mg/kg, route oral; settings: in vivo, 96 h
Rattus norvegicus [6] = test: Toxicity in male CD(SD)IGS rat assessed as effect on prostate weight at 1.5 mg/kg, po bid for 4 days by Hershberger assay; format: organism-based, Prostate gland; set-up: dose 1.5 mg/kg, route oral; settings: in vivo, 96 h
Rattus norvegicus [7] = test: Induction of sexual behavior in castrated male CD(SD)IGS rat assessed as pseudopregnancy rate in female rat at 5 mg/kg, po bid measured on day 21 after first treatment (reference value: 0%); format: functional
Rattus norvegicus [8] = test: Induction of levator ani muscle weight in male CD(SD)IGS rat at 1.5 mg/kg, po bid for 4 days by Hershberger assay; format: functional
Brain = test: Drug uptake in male Sprague-Dawley rat brain at 5 mg/kg, po; format: ADME, organism-based; set-up: dose 5 mg/kg, route oral; settings: in vivo
Rattus norvegicus [9] = test: Induction of sexual behavior in castrated male CD(SD)IGS rat assessed as pseudopregnancy rate in female rat at 2.5 mg/kg, po bid measured on day 21 after first treatment (reference value: 0%); format: functional
Rattus norvegicus [10] = test: Induction of sexual behavior in castrated male CD(SD)IGS rat assessed as pseudopregnancy rate in female rat at 3.5 mg/kg, po bid measured on day 21 after first treatment (reference value: 0%); format: functional
[11] = Drug uptake in male Sprague-Dawley rat levator ani muscle at 5 mg/kg, po; format: ADME, organism-based; set-up: dose 5 mg/kg, route oral; settings: in vivo
Plasma = test: Drug uptake in male Sprague-Dawley rat plasma at 5 mg/kg, po; format: ADME, organism-based; set-up: dose 5 mg/kg, route oral; settings: in vivo
Prostate gland = test: Drug uptake in male Sprague-Dawley rat prostate at 5 mg/kg, po; format: ADME, organism-based; set-up: dose 5 mg/kg, route oral; settings: in vivo

Compound | IC50 (Androgen receptor [1]) [nM] | EC50 (Androgen receptor [2]) [nM] | also measured
O=C(O)c1ccc(N2CCCC2)c2ccccc12 | > 10000 | – | –
C[C@H]1CCCN1c1ccc(C#N)c2ccccc12 | 0.84 | 0.19 | –
C[C@@H]1CCCN1c1ccc(C#N)c2ccccc12 | 20 | > 1000 | –
CC1(C)CCCN1c1ccc(C#N)c2ccccc12 | 7 | 21 | –
CC[C@H]1CCCN1c1ccc(C#N)c2ccccc12 | 1.1 | 0.24 | –
CC(C)[C@H]1CCCN1c1ccc(C#N)c2ccccc12 | 1.4 | 2 | –
N#Cc1ccc(N2CCC[C@@H]2C(N)=O)c2ccccc12 | 34 | 21 | –
N#Cc1ccc(N2CCC[C@@H]2C#N)c2ccccc12 | 1 | 160 | –
C[C@H]1[C@@H](O)CCN1c1ccc(C#N)c2ccccc12 | 2.2 | 0.25 | Activity (Rattus norvegicus [3]): 70%; Activity (Rattus norvegicus [4]): 44%; Activity (Rattus norvegicus [5]): Non-toxic; Activity (Rattus norvegicus [6]): Non-toxic; Activity (Rattus norvegicus [7]): 80%; Activity (Rattus norvegicus [8]): 150%
C[C@H]1[C@H](O)CCN1c1ccc(C#N)c2ccccc12 | 2.4 | 0.32 | Activity (Rattus norvegicus [3]): 67%; Activity (Rattus norvegicus [4]): 38%; Activity (Rattus norvegicus [5]): Non-toxic; Activity (Rattus norvegicus [6]): Non-toxic; Activity (Rattus norvegicus [7]): 67%; Activity (Rattus norvegicus [8]): 150%
C[C@H]1C(=O)CCN1c1ccc(C#N)c2ccccc12 | 37 | 2.2 | –
C[C@H]1[C@@H](CO)CCN1c1ccc(C#N)c2ccccc12 | 4.1 | 1.2 | –
C[C@H]1[C@@H](C(C)(C)O)CCN1c1ccc(C#N)c2ccccc12 | 1.4 | 45 | Drug uptake (Brain): Active; Activity (Rattus norvegicus [9]): 57%; Activity (Rattus norvegicus [10]): 57%; Drug uptake [11]: Active; Activity (Rattus norvegicus [5]): Non-toxic; Drug uptake (Plasma): Active; Drug uptake (Prostate gland): Active; Activity (Rattus norvegicus [6]): Non-toxic; Activity (Rattus norvegicus [7]): 50%
COC(=O)[C@H]1CCN(c2ccc(C#N)c3ccccc23)[C@H]1C | 7.5 | > 1000 | –
O=[N+]([O-])c1ccc(N2CCCC2)c2ccccc12 | 2.5 | 41 | –
N#Cc1ccc(N2CCCC2)c2ccccc12 | 2.5 | 2.5 | –
